Laboratory results: ChEMBL document CHEMBL1133322, “The synthesis and vasopressin (AVP) antagonist activity of a novel series of N-aroyl-2,4,5,6-tetrahydropyrazolo[3,4-d]thieno[3,2-b]azepines” (Bioorg Med Chem Lett, 2000)

How the values were obtained:
Vasopressin V1a receptor [1] = molecular target: T1, Vasopressin V1a receptor (Homo sapiens, UniProt P37288); assay: In vitro inhibition against human V1a receptor at 10 uM
Target sequence in this assay (P37288 whole entry, looked up): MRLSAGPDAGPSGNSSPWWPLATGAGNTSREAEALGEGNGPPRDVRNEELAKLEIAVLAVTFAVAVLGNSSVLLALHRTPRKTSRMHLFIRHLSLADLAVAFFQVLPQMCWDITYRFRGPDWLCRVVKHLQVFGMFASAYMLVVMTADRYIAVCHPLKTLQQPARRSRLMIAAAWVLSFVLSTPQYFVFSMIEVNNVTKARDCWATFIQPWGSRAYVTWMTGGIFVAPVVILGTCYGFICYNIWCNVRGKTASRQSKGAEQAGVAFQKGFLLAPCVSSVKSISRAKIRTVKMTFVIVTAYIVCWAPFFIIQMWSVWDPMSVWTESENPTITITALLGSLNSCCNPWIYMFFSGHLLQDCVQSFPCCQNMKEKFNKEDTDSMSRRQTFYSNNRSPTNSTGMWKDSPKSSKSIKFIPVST

Vasopressin V1a receptor [2] = molecular target: Vasopressin V1a receptor (Rattus norvegicus, UniProt P30560); assay: In vitro binding affinity for rat V1a receptor
Chain of Vasopressin V1a receptor (Rattus norvegicus, UniProt P30560) (P30560 whole entry): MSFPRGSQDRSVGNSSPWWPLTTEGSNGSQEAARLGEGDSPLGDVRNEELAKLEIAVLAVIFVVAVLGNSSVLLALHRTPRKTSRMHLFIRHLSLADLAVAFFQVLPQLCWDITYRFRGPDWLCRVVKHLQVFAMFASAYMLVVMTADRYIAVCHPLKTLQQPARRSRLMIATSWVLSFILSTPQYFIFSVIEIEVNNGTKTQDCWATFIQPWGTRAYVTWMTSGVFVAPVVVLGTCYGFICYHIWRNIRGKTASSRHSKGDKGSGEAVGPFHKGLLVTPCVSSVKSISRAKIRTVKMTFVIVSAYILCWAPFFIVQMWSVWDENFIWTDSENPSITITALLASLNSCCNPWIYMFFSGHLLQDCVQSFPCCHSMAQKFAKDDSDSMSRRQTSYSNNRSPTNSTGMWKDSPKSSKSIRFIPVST

Rattus norvegicus [3] = assay: Urine volume was measured after 4 hours following oral compound dose of 10 mg/kg in a volume of 10 mL/kg (20% dimethylsulfoxide in 2.5% preboiled starch) in rats deprived with food or water; assay type: functional
Vasopressin V2 receptor [4] = molecular target: T2, Vasopressin V2 receptor (Rattus norvegicus, UniProt Q00788); assay: In vitro for its binding affinity to rat V2 receptor
T2 sequence (Q00788 whole entry): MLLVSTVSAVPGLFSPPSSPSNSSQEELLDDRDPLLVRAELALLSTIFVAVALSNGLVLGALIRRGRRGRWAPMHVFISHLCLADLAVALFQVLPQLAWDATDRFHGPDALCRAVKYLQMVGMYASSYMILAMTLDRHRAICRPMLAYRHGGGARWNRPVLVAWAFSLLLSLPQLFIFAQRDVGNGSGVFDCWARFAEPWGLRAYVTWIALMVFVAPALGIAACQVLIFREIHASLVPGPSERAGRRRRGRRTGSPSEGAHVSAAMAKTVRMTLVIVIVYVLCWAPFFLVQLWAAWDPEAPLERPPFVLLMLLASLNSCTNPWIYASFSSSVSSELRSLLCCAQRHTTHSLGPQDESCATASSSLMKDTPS

Rattus norvegicus [5] = assay: Urine volume was measured after 4 hours following oral compound dose of 10 mg/kg in rats deprived of food or water (water-loaded 30 mL/kg + 0.4 ug/kg of AVP intraperitoneal); assay type: functional
Vasopressin V2 receptor [6] = molecular target: T3, Vasopressin V2 receptor (Homo sapiens, UniProt P30518); assay: In vitro binding affinity to human V2 receptor
T3 sequence (P30518 whole entry): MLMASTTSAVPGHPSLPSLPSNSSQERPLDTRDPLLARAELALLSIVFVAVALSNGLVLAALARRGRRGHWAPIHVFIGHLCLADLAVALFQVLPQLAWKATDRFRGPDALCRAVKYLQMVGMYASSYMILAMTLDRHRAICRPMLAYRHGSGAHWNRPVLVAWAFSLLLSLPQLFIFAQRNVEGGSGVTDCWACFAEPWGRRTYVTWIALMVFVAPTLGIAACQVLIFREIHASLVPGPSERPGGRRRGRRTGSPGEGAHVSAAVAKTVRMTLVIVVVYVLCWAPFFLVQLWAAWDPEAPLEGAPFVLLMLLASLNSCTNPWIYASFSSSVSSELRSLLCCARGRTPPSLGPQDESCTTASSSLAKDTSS

Vasopressin V1a receptor [7] = molecular target: T1, Vasopressin V1a receptor; assay: In vitro binding affinity to human V1a receptor
Target sequence in this assay (P37288 whole entry): as the sequence (P37288 whole entry, looked up) above

Vasopressin V2 receptor [8] = molecular target: T2, Vasopressin V2 receptor; assay: Binding affinity to rat V2 receptor
Vasopressin V2 receptor [9] = molecular target: T3, Vasopressin V2 receptor; assay: In vitro inhibition against human V2 receptor at 10 uM
Rattus norvegicus [10] = assay: Urine volume was measured after 4 hours following oral compound dose of 3 mg/kg in rats deprived with food or water; assay type: functional
[11] = molecular target: Vasopressin V1a receptor (Rattus norvegicus) (UniProt P30560); assay: In vitro inhibition against rat V1a receptor at 10 uM
Chain of Vasopressin V1a receptor (Rattus norvegicus) (P30560 whole entry, looked up): as the sequence (P30560 whole entry) above

Structure (SMILES)	Urine volume (Rattus norvegicus [3]) [ml 4hr-1]	Urine volume (Rattus norvegicus [5]) [ml 4hr-1]	IC50 (Vasopressin V2 receptor [6]) [nM]	IC50 (Vasopressin V1a receptor [7]) [nM]	also measured
Cc1ccc(F)cc1C(=O)Nc1ccc(C(=O)N2CCc3c[nH]nc3-c3sccc32)c(Cl)c1	7				inhibition (Vasopressin V1a receptor [1]): 69%; IC50 (Vasopressin V1a receptor [2]): 12400 nM; IC50 (Vasopressin V2 receptor [4]): 6 nM
Cn1cc2c(n1)-c1sccc1N(C(=O)c1ccc(NC(=O)c3ccc(Cl)cc3Cl)cc1)CC2		6	150	4100	IC50 (Vasopressin V1a receptor [2]): 2100 nM; IC50 (Vasopressin V2 receptor [8]): 38 nM
O=C(Nc1ccc(C(=O)N2Cc3cccn3Cc3ccccc32)cc1)c1ccc(Cl)cc1Cl		16			
O=C(Nc1ccc(C(=O)N2CCCCc3sc(Cl)cc32)c(Cl)c1)c1ccccc1-c1ccccc1	22				
Cc1ccc(F)cc1C(=O)Nc1ccc(C(=O)N2CCc3c[nH]nc3-c3sccc32)cc1		18	71		IC50 (Vasopressin V2 receptor [4]): 69 nM
O=C(Nc1ccc(C(=O)N2CCc3c[nH]nc3-c3sccc32)cc1)c1ccc(F)cc1Cl	15		140		
Cc1ccccc1C(=O)Nc1ccc(C(=O)N2CCc3cn(C(=O)c4ccccc4C)nc3-c3sccc32)cc1		14			inhibition (Vasopressin V1a receptor [1]): 88%; inhibition (Vasopressin V2 receptor [9]): 88%
Cc1ccccc1C(=O)Nc1ccc(C(=O)N2CCc3c[nH]nc3-c3sccc32)cc1		21	130	240	IC50 (Vasopressin V1a receptor [2]): 2100 nM; IC50 (Vasopressin V2 receptor [4]): 120 nM
O=C(Nc1ccc(C(=O)N2CCc3c[nH]nc3-c3sccc32)c(Cl)c1)c1ccccc1-c1ccccc1	27		1.7		Urine volume (Rattus norvegicus [10]): 22 ml 4hr-1
Cn1cc2c(n1)-c1sccc1N(C(=O)c1ccc(NC(=O)C3CCCCC3)cc1)CC2		9			
O=C(Nc1ccc(C(=O)N2Cc3cccn3Cc3ccccc32)c(Cl)c1)c1ccccc1-c1ccccc1	27		2.7	370	Urine volume (Rattus norvegicus [10]): 20 ml 4hr-1
Cc1ccc(F)cc1C(=O)Nc1ccc(C(=O)N2CCCCc3sccc32)c(Cl)c1		4			
Cc1ccccc1C(=O)Nc1ccc(C(=O)N2CCc3cn(C)nc3-c3sccc32)cc1	3		220	1740	IC50 (Vasopressin V1a receptor [2]): 2010 nM; IC50 (Vasopressin V2 receptor [8]): 24 nM
O=C(Nc1ccc(C(=O)N2CCCCc3sc(Cl)cc32)cc1)c1ccc(Cl)cc1Cl		8			
O=C(Nc1ccc(C(=O)N2CCCCc3sccc32)c(Cl)c1)c1ccccc1-c1ccccc1	19			86	IC50 (Vasopressin V2 receptor [8]): 1.2 nM
Cc1ccc(F)cc1C(=O)Nc1ccc(C(=O)N2Cc3cccn3Cc3ccccc32)c(Cl)c1 [LIXIVAPTAN]	22				Urine volume (Rattus norvegicus [10]): 20 ml 4hr-1
O=C(Nc1ccc(C(=O)N2Cc3cccn3Cc3ccccc32)cc1)c1ccccc1-c1ccccc1	21				
O=C(Nc1ccc(C(=O)N2CCc3c[nH]nc3-c3sccc32)c(Cl)c1)c1cc(Cl)ccc1F	12				inhibition [11]: 18%
O=C(Nc1ccc(C(=O)N2CCCCc3sc(Cl)cc32)cc1)c1ccccc1-c1ccccc1	20			82	IC50 (Vasopressin V2 receptor [8]): 3.2 nM
